Test results reported in US9017722B2, “Pharmaceutical composition containing as an active ingredient 5-methyl-1-phenyl-2-(1H)-pyridone” (Intermune, Inc., priority 2001, dated 2015).

Test: Light exposure testing (color difference after light irradiation)
Format: physicochemical
Conditions: for Discoloration / Color difference (ΔE): D65 fluorescent lamp, 3570 Lx, exposure dose 1,200,000 Lx·hr, 25° C., room humidity; for Color difference (ΔE): CIELAB, reflected ray measurement; for light-stability (conclusion from Table 2): light exposure test, 1,200,000 Lx·hr
Procedure: Light exposure test of pirfenidone was carried out under the following condition, using “drug substance” obtained by packing 500 mg of milled pirfenidone drug substance in a heat-sealed transparent SP (Striped Package), “compressed drug substance” obtained by statically compressing 300 mg of milled pirfenidone drug substance, “the plain tablets” obtained in the above Example 1, and “the coated tablets” obtained in the above Example 1. […]
light irradiation apparatus: light stability test apparatus (LTL400-D5) (Nagano Science Equipment Mfg. Co., Ltd.) fluorescent light: D65 fluorescent lamp for color comparing and test temperature and humidity: 25° C., room humidity illumination intensity: 3570 Lx […]
coloring difference measure apparatus: Color analyzer TC-1800MK-II measurement method: reflected ray measurement color specification system: CIELAB measurement condition: second degree visual field

Row | SMILES | Discoloration | Color difference (ΔE) | light-stability (conclusion from Table 2) (listed as pirfenidone compressed drug substance) | light-stability (conclusion from Table 2) (listed as pirfenidone drug substance)
1 | Cc1ccc(=O)n(-c2ccccc2)c1 [Compressed drug substance, 5-Methyl-1-phenyl-2-(1H)-pyridone] | remarkable | 3.62 | have a problem in light-stability | 
2 | Cc1ccc(=O)n(-c2ccccc2)c1 [Drug substance, 5-Methyl-1-phenyl-2-(1H)-pyridone] | slight | 0.73 |  | remarkable color difference was not observed
